Data reported in patent US20250092001A1, “NOVEL EXCITATORY AMINO ACID GLUTAMATE TRANSPORT MODULATORS AND METHODS USING THE SAME” (Drexel University, priority 2022, published 2025).
Where two headings read alike, the source gives them in different places.

Columns and labels:
[1] = test system: Drosophila model of Huntington's Disease (Htt model); assay: Larval locomotion assay in Drosophila Huntington's disease model; type: in vivo; settings: third instar larvae; concentrations as low as two-fold below EC50 and one-fold below EC50
Source text: FIG. 6A illustrate certain aspects of a locomotion assay used to assay the locomotive activities. […] FIGS. 6B and 6C depict the results of the locomotion assay results of wild-type Drosophila (“WT”), as well as Drosophila of a Huntington's disease model treated with vehicle (“Veh”) or with various concentrations of two exemplary GLT-1 modulators. […] The Drosophila Htt model is produced by crossing UAS-Htt([…]) male flies with elav-Gal4 virgin female flies. Both fly strains were purchased from Bloomington Drosophila Stock Center (BDSC, Indiana, USA). […] Locomotion assays were conducted by transferring the third instar larvae of flies to agar plates (FIG. 6A) and counting the number of grid lines crossed in 30 seconds.

[2] = Pharmacokinetics of GT467 and GT511 in rats, plasma and brain (IV, IP, PO); type: in vivo, rat; settings: for AUC0-t: 0 to 24 hrs
Description: Pharmacokinetics (PK) study for GT951 was conducted at Melior Discovery Services (Exton, PA). Fifteen male CD-1 mice 23-50 g was used for the study and the mice were housed 3 per cage. PK studies for GT467 and GT511 were conducted at Piramal Pharma solutions under approved protocols (Pune, India). One hundred and sixty-eight male Wistar rats were used for the study and housed 4 per cage. All animals were maintained on a standard 12 h light cycle and given free access to water and standard rodent chow. Food and water were available ad libitum. Animals were not fasted for any portion of the study and animals were acclimated to the animal care facility for seven days prior to the start of the experiment. The holding room and procedure room temperature was 21-23° C. and humidity was at 40-45% during the experiment (within the normal range of the care facility). All procedures were completed according to Institutional Animal Care and Use Committee (IACUC) approved protocols for housing and for PK studies.
Rats were dosed with the drug and blood and brain samples were collected at 0.5, 1, 2, 4, 8 and 24 h time points. Blood was collected via the sub-lingual vein under anesthesia into tubes containing Na2EDTA as an anticoagulant. Plasma fraction was separated by centrifuging the samples at 10,000 rpm for 5 min and the plasma was transferred to a cryo tube and stored at −80 C. Animals were euthanized and the brain was rapidly removed on ice and weighed. Brain was homogenized in Milli Q water and the homogenate was stored at −80 C until further use. Bioanalysis of the samples was performed using the SCIEX QTRAP 5500 LCMS/MS system with Phenomenex synergy C18 column and carbamazepine as internal standard. A methanol extraction procedure was used to precipitate the proteins in the sample. In addition to the internal standards, drug free plasma and brain samples were prepared for calibration and quantification standards. All samples were within the detectable range of the standard curves. 50 μl of the sample was added to 200 μl of the working solution of the internal standard and centrifuged for 5 min at 10,000 rpm. 60 μl of the supernatant was added to 140 μl of water and mixed well prior to transferring them for quantitative analysis on LCMS.
Specifically, rats were administered with GT467 or GT511 intraperitoneally (IP), intravenously (IV) or orally (PO). The concentration of the administered compounds measured at various timepoints in the plasma are depicted in FIGS. 4A and 4B, the concentrations of the administered compounds measured at various timepoints in the brain are depicted in FIGS. 5A and 5B.
Furthermore, pharmacokinetic parameters such as the peak concentration (Cmax), the time to reach the peak concentration (Tmax), the area under curve from time 0 to T (i.e., 24 hrs) (AUC0-t), the area under curve from time 0 to infinite (AUC0-∞), the half-life (t1/2), the oral clearance (CL/F), the volume of distribution of drug observed (Vz_F_obs), and the percentage of bioavailability (% Bioavailability) were also measured or calculated.

[3] = male, Wistar, rat plasma, IP 10 mg/kg
[4] = male, Wistar, rat plasma, IV 5 mg/kg
[5] = male, Wistar, rat plasma, PO 10 mg/kg

COc1ccc(NC(=O)C(=O)NCC(c2ccccc2)N2CCN(C)CC2)cc1 (stereo not shown) [GT467, N1-(4-methoxyphenyl)-N2-(2-(4-methylpiperazin-1-yl)-2-phenylethyl)oxalamide]
Locomotor ability (grid lines crossed in 30 seconds) [1]: restores the Huntington's disease model flies' locomotor ability | AUC(0-inf) [2, 3]: 556 ng·h/mL | Cmax [2, 3]: 262 ng/mL | AUC0-t ([2]; male, Wistar, rat plasma, IP 10 mg/kg, read-out: AUC0-t): 537 ng·h/mL | CL/F ([2]; male, Wistar, rat plasma, IP 10 mg/kg, read-out: CL/F (converted)): 302 mL/min/kg | AUC(0-inf) [2, 4]: 321 ng·h/mL | Cmax [2, 4]: 307 ng/mL | AUC0-t ([2]; male, Wistar, rat plasma, IV 5 mg/kg, read-out: AUC0-t): 316 ng·h/mL | AUC(0-inf) [2, 5]: 798 ng·h/mL | Cmax [2, 5]: 204 ng/mL | AUC0-t ([2]; male, Wistar, rat plasma, PO 10 mg/kg, read-out: AUC0-t): 507 ng·h/mL | CL/F ([2]; male, Wistar, rat plasma, PO 10 mg/kg, read-out: CL/F (converted)): 299 mL/min/kg | AUC0-∞ ([2]; rat brain, IP 10 mg/kg): 4442.19 ng·h/g | Tmax ([2]; rat brain, IP 10 mg/kg): 30 min | t1/2 ([2]; rat brain, IP 10 mg/kg): 97.2 min | AUC0-t ([2]; rat brain, IP 10 mg/kg): 4414.35 ng·h/g | AUC0-∞ ([2]; rat brain, IV 5 mg/kg): 2015.59 ng·h/g | Tmax ([2]; rat brain, IV 5 mg/kg): 30 min | t1/2 ([2]; rat brain, IV 5 mg/kg): 61.8 min | AUC0-t ([2]; rat brain, IV 5 mg/kg): 1959.70 ng·h/g | AUC0-∞ ([2]; rat brain, PO 10 mg/kg): 3080.18 ng·h/g | Tmax ([2]; rat brain, PO 10 mg/kg): 52.8 min | t1/2 ([2]; rat brain, PO 10 mg/kg): 109 min | AUC0-t ([2]; rat brain, PO 10 mg/kg): 2816.80 ng·h/g | % Bioavailability ([2]; rat plasma, IP 10 mg/kg): 85.03% | Tmax ([2]; rat plasma, IP 10 mg/kg): 30 min | Vz_F_obs ([2]; rat plasma, IP 10 mg/kg): 26.470969 L/kg | t1/2 ([2]; rat plasma, IP 10 mg/kg): 60.96 min | CL/F ([2]; rat plasma, IV 5 mg/kg): 273.17875 mL/min/kg | Tmax ([2]; rat plasma, IV 5 mg/kg): 30 min | Vz_F_obs ([2]; rat plasma, IV 5 mg/kg): 16.170403 L/kg | t1/2 ([2]; rat plasma, IV 5 mg/kg): 39.1 min | % Bioavailability ([2]; rat plasma, PO 10 mg/kg): 80.34% | Tmax ([2]; rat plasma, PO 10 mg/kg): 52.5 min | Vz_F_obs ([2]; rat plasma, PO 10 mg/kg): 95.358274 L/kg | t1/2 ([2]; rat plasma, PO 10 mg/kg): 285.8 min | Plasma concentration and brain concentration by route of administration ([2]; rats, IP, IV, PO): high plasma concentration and brain concentration
